Reference: patent publication US20250025443A1, “COMPOUNDS AND METHODS FOR TREATING CORONA VIRUSES” (CLEAR CREEK BIO, INC., priority 2021, published 2025)
pIC50: −log10 of the molar value.

Target: SARS-CoV-2 Papain-Like Protease (PLpro) (Severe acute respiratory syndrome coronavirus 2 (2019-nCoV) (SARS-CoV-2), UniProt P0DTD1)
Experiment: biochemical
Details: PLpro 6.25 nM, substrate 25 μM, 60 min at 25° C.; for more potent compounds PLpro 1 nM, 120 min; read-out: PLpro IC50

SMILES | pIC50
CC(=O)c1ccc(C)c(C(=O)N[C@H](C)c2cccc3ccccc23)c1 [Compound 155, (R)-5-Acetyl-2-methyl-N-(1-(naphthalen-1-yl)ethyl)benzamide] | < 5.30
COc1ccc(Cl)c(C(=O)N[C@H](C)c2cccc3ccccc23)c1 [Compound 132, (R)-2-Chloro-5-methoxy-N-(1-(naphthalen-1-yl)ethyl)benzamide] | < 5.30

Same assay, conditions: PLpro IC50, SARS-CoV-2 PLpro enzymatic fluorescence assay

SMILES | pIC50
Cc1ccc(C2=CCNCC2)cc1C(=O)NC1(c2cccc3ccccc23)CC1 [Compound 399, 2-Methyl-N-(1-(naphthalen-1-yl)cyclopropyl)-5-(1,2,3,6-tetrahydropyridin-4-yl)benzamide] | > 7.00

Same assay, conditions: PLpro enzymatic fluorescence assay; class symbols; read-out: PLpro IC50

SMILES | pIC50
Cc1ccc(OC[C@@H]2CCN2C)cc1C(=O)NC1(c2cc(-c3cnc(N4CCCCC4)nc3)cc3ncccc23)CC1 [Compound 701, (S)-2-Methyl-5-((1-methylazetidin-2-yl)methoxy)-N-(1-(7-(2-(piperidin-1-yl)pyrimidin-5-yl)quinolin-5-yl)cyclopropyl)benzamide] | > 7.00
Cc1ccc(OC[C@@H]2CCN2C)cc1C(=O)NC1(c2cc(-c3nccs3)cc3ncccc23)CC1 [Compound 590, (S)-2-Methyl-5-((1-methylazetidin-2-yl)methoxy)-N-(1-(7-(thiazol-2-yl)quinolin-5-yl)cyclopropyl)benzamide] | > 7.00
Cc1ccc(OC[C@@H]2CCN2C)cc1C(=O)NC1(c2cc(-c3cn[nH]c3)cc3ncccc23)CC1 [Compound 652, (S)-N-(1-(7-(1H-Pyrazol-4-yl)quinolin-5-yl)cyclopropyl)-2-methyl-5-((1-methylazetidin-2-yl)methoxy)benzamide] | > 7.00
COc1cc(C2(NC(=O)c3cc(OC[C@@H]4CC[C@@H]5CN(C(=O)OC(C)(C)C)CCN54)ccc3C)CC2)c2cccnc2c1 [Compound 775] | > 7.00
Cc1ccc(OC[C@@H](C)N)cc1C(=O)NC1(c2cc(-c3cccs3)cc3ccccc23)CC1 [Compound 543, (R)-5-(2-Aminopropoxy)-2-methyl-N-(1-(3-(thiophen-2-yl)naphthalen-1-yl)cyclopropyl)benzamide] | > 7.00
Cc1ccc(OCC2CCN2C)cc1C(=O)NC1(c2ccnc3ccccc23)CC1 (centres unmarked) [Compound 473, 2-Methyl-5-((1-methylazetidin-2-yl)methoxy)-N-(1-(quinolin-4-yl)cyclopropyl)benzamide] | > 7.00
Cc1ccc(N2CC(N)C2)cc1C(=O)NC1(c2cccc3ccccc23)CC1 [Compound 464, 5-(3-Aminoazetidin-1-yl)-2-methyl-N-(1-(naphthalen-1-yl)cyclopropyl)benzamide] | > 7.00
C=C(C)c1cc(C2(NC(=O)c3cc(OC[C@H](C)N)ccc3C)CC2)c2cccnc2c1 [Compound 734, (S)-5-(2-Aminopropoxy)-2-methyl-N-(1-(7-(prop-1-en-2-yl)quinolin-5-yl)cyclopropyl)benzamide] | > 7.00
Cc1ccc(OC[C@@H]2CCN2)cc1C(=O)NC1(c2cc(-c3ccn(C)n3)cc3ncccc23)CC1 [Compound 634, (S)-5-(Azetidin-2-ylmethoxy)-2-methyl-N-(1-(7-(1-methyl-1H-pyrazol-3-yl)quinolin-5-yl)cyclopropyl)benzamide] | > 7.00
COc1cc(C2(NC(=O)c3cc(OC[C@H]4C[C@H](F)CN4)ccc3C)CC2)c2cccnc2c1 [Compound 556, 5-(((2R,4S)-4-Fluoropyrrolidin-2-yl)methoxy)-N-(1-(7-methoxyquinolin-5-yl)cyclopropyl)-2-methylbenzamide] | > 7.00
Cc1ccc(OCC(C)N)cc1C(=O)NC1(c2cccc3cnccc23)CC1 (centres unmarked) [Compound 446, 5-(2-Aminopropoxy)-N-(1-(isoquinolin-5-yl)cyclopropyl)-2-methylbenzamide] | > 7.00
C=Cc1cc(C2(NC(=O)c3cc(OC[C@@H]4CCN4C)c(NC(C)=O)cc3C)CC2)c2cccnc2c1 [Compound 746, (S)-4-Acetamido-2-methyl-5-((1-methylazetidin-2-yl)methoxy)-N-(1-(7-vinylquinolin-5-yl)cyclopropyl)benzamide] | > 7.00
COc1cc(C2(NC(=O)c3cc(OC[C@@H](C)N)ccc3C)CC2)c2ccncc2c1 [Compound 537, (R)-5-(2-Aminopropoxy)-N-(1-(7-methoxyisoquinolin-5-yl)cyclopropyl)-2-methylbenzamide] | > 7.00
COc1cc(C2(NC(=O)c3cc(OC[C@@]45CCCN4C[C@H](F)C5)ccc3C)CC2)c2cccnc2c1 [Compound 596, 5-(((2R,7aS)-2-Fluorohexahydro-1H-pyrrolizin-7a-yl)methoxy)-N-(1-(7-methoxyquinolin-5-yl)cyclopropyl)-2-methylbenzamide] | > 7.00
Cc1ccc2c(C3(NC(=O)c4cc(OC[C@@H]5CCN5C)ccc4C)CC3)cc(NCC(F)(F)F)cc2n1 [Compound 826, (S)-2-Methyl-N-(1-(2-methyl-7-((2,2,2-trifluoroethyl)amino)quinolin-5-yl)cyclopropyl)-5-((1-methylazetidin-2-yl)methoxy)benzamide] | > 7.00
CC(=O)c1ccc(-c2cc(C3(NC(=O)c4cc(OC[C@@H]5CCN5C)ccc4C)COC3)c3cccnc3c2)s1 [Compound 821, (S)-N-(3-(7-(5-Acetylthiophen-2-yl)quinolin-5-yl)oxetan-3-yl)-2-methyl-5-((1-methylazetidin-2-yl)methoxy)benzamide] | > 7.00
CNc1cc(C)c(C(=O)NC2(c3cc(OC)cc4ncccc34)CC2)cc1OC[C@@H]1CCN1C [Compound 737, (S)-N-(1-(7-Methoxyquinolin-5-yl)cyclopropyl)-2-methyl-4-(methylamino)-5-((1-methylazetidin-2-yl)methoxy)benzamide] | > 7.00

Same assay, conditions: SARS-CoV-2 PLpro enzymatic fluorescence assay; read-out: PLpro IC50

SMILES | pIC50
Cc1ccc(OCCN(C)C)cc1C(=O)NC1(c2ccccc2Oc2ccccc2)CC1 [Compound 298, 5-(2-(Dimethylamino)ethoxy)-2-methyl-N-(1-(2-phenoxyphenyl)cyclopropyl)benzamide] | 5.30 to 6.00
Cc1cc2cc(CN)oc2cc1C(=O)NC1(c2cccc3ccccc23)CC1 [Compound 236] | 6.00 to 7.00
Cc1ccc(COC2CN(C)C2)cc1C(=O)NC1(c2cccc3ccccc23)CC1 [Compound 447, 2-Methyl-5-(((1-methylazetidin-3-yl)oxy)methyl)-N-(1-(naphthalen-1-yl)cyclopropyl)benzamide] | 6.00 to 7.00
Cc1ccc(OCC(C)(C)N)cc1C(=O)NC1(c2cccc3ccccc23)CC1 [Compound 352, 5-(2-Amino-2-methylpropoxy)-2-methyl-N-(1-(naphthalen-1-yl)cyclopropyl)benzamide] | > 7.00
Cc1ccc(OCCN(C)C)cc1C(=O)NC1(c2cccc(-c3cccs3)c2)CC1 [Compound 355, 5-(2-(Dimethylamino)ethoxy)-2-methyl-N-(1-(3-(thiophen-2-yl)phenyl)cyclopropyl)benzamide] | 6.00 to 7.00
Cc1cc(C2(NC(=O)c3cc(OCC(C)N)ccc3C)CC2)c2cccnc2c1 (centres unmarked) [Compound 497, 5-(2-Aminopropoxy)-2-methyl-N-(1-(7-methylquinolin-5-yl)cyclopropyl)benzamide] | > 7.00
Cc1cc2c(cc1C(=O)NC1(c3cccc4ccccc34)CC1)NCCC2 [Compound 227, 6-Methyl-N-(1-(naphthalen-1-yl)cyclopropyl)-1,2,3,4-tetrahydroquinoline-7-carboxamide] | 6.00 to 7.00
Cc1ccc(OC[C@H]2C[C@H](O)CN2C)cc1C(=O)NC1(c2cccc3ccccc23)CC1 (single isomer, unassigned) [Compound 439] | > 7.00
CCCC1COc2cc(C(=O)NC3(c4cccc5ccccc45)CC3)c(C)cc21 (centres unmarked) [Compound 397, 5-Methyl-N-(1-(naphthalen-1-yl)cyclopropyl)-3-propyl-2,3-dihydrobenzofuran-6-carboxamide] | 6.00 to 7.00
COCC(NC(=O)c1cc([N+](=O)[O-])ccc1C)c1cccc2ccccc12 (centres unmarked) [Compound 108, N-(2-Methoxy-1-(naphthalen-1-yl)ethyl)-2-methyl-5-nitrobenzamide] | < 5.30
Cc1ccc(OC2CNC(C)(C)C2)cc1C(=O)NC1(c2cccc3ccccc23)CC1 (centres unmarked) [Compound 533, 5-((5,5-Dimethylpyrrolidin-3-yl)oxy)-2-methyl-N-(1-(naphthalen-1-yl)cyclopropyl)benzamide] | > 7.00
COc1cc(C2(NC(=O)c3cc(OC[C@H](C)N)ccc3C)CC2)c2cccnc2c1 [Compound 530, (S)-5-(2-Aminopropoxy)-N-(1-(7-methoxyquinolin-5-yl)cyclopropyl)-2-methylbenzamide] | > 7.00
CNCc1nc2cc(C)c(C(=O)NC3(c4cccc5ccccc45)CC3)cc2o1 [Compound 426, 5-Methyl-2-((methylamino)methyl)-N-(1-(naphthalen-1-yl)cyclopropyl)benzo[d]oxazole-6-carboxamide] | 6.00 to 7.00
CNCc1cc2cc(C)c(C(=O)NC3(c4cccc5ccccc45)CC3)cc2o1 [Compound 220, 5-Methyl-2-((methylamino)methyl)-N-(1-(naphthalen-1-yl)cyclopropyl)benzofuran-6-carboxamide] | > 7.00
Cc1ccc(OC[C@@H]2CCN2C)cc1C(=O)NC1(c2cccc3cc(F)ccc23)CC1 [Compound 389, (S)-N-(1-(6-Fluoronaphthalen-1-yl)cyclopropyl)-2-methyl-5-((1-methylazetidin-2-yl)methoxy)benzamide] | > 7.00
COC(=O)/C=C/C(=O)NNC(=O)CCc1ccccc1C(=O)NC1(c2cccc3ccccc23)CC1 [Compound 373, (E)-Methyl 4-(2-(3-(2-((1-(naphthalen-1-yl)cyclopropyl)carbamoyl)phenyl)propanoyl) hydrazinyl)-4-oxobut-2-enoate] | > 7.00
CC(c1cccc2ccccc12)N1CCc2ccc(NC(=O)Cc3ccccc3)cc2C1 (centres unmarked) [Compound 139, N-(2-(1-(Naphthalen-1-yl)ethyl)-1,2,3,4-tetrahydroisoquinolin-7-yl)-2-phenylacetamide] | < 5.30
COc1cc(C2(NC(=O)c3cc(OC[C@@H]4CCCN4)ccc3C)CC2)c2ccccc2c1 [Compound 419, (S)-N-(1-(3-Methoxynaphthalen-1-yl)cyclopropyl)-2-methyl-5-(pyrrolidin-2-ylmethoxy)benzamide] | > 7.00
